Source: patent US8618054B2, “Interleukin-1 receptor antagonists, compositions, and methods of treatment” (Valorisation-Rechereche Société en Commandite, priority 2004, dated 2013)
Marks after values point to notes of the source that are not given here. Where a SMILES comes first, the peptide text is derived from it. Where no end group is shown, it is not given here. [ ]: non-standard residue; d: D form.

Key:
[1] = TNBS-induced inflammatory bowel disease rat model, Example 6 (48 h; MPO, macroscopic, histologic); type: in vivo; design: macroscopic evaluation (median score): scale not given here
Description: Colon inflammation was induced by intra-rectal/colon administration of the hapten trinitrobenzene sulphonic acid (TNBS) on male Sprague-Dawley rats (175-200 g) (Bouma, Nature Rev, 2003; Morris, Gastroenterology, 1989). Animals were anesthetized with isoflurane and TNBS dissolved in 50% ethanol (vol/vol). 120 mg/ml (TNBS) was administered into the colon (total volume of 0.25 ml per rat) using a polyethylene tube (PE50). The cannula was inserted at 8 cm from the anus and kept in place for at least 15 min after TNBS administration in order to prevent expulsion of the solution. […] A third group (control) was not injected with TNBS. Six days after administration of TNBS, rats were killed by CO2 inhalation. Day 6 was chosen as an endpoint because by day 7 spontaneous tissue regeneration begins and this can mask the therapeutic effect of the tested peptide or peptide derivative. Colon was removed and examined macroscopically (adhesions, ulcerations, discoloration and bleeding) and histologically (neutrophil infiltration, epithelial injury, crypt distortion and ulcerations) (Anthony et al. 1995; Padol et al. 2000; Dieleman, L A, et al. 1997; Torres M I et al. 1999). Two animals per group were studied.
Colon inflammation was induced by intra-rectal/colon administration of the hapten trinitrobenzene sulphonic acid (TNBS) as described in Example 4. Two hours prior to TNBS administration, peptides, peptidomimetics or 0.9% saline were administered intravenously (iv) via the caudal vein (various concentrations of mg/kg/d) (total volume of 0.3 ml). […] A third group (control) was not injected with TNBS. […] Also, these IL-1R antagonists were given twice a day (BID); Remicade® (anti-TNFα) (10 mg/kg) and dexamethasone (0.75 mg/kg) were administered intraperitoneally but only once a day (qd). The intrarectal administration (ir) of 101.10, 101.113 (1 and 2.5 mg/kg), and 5-ASA (50 mg/kg) was done one hour after TNBS administration, and twice a day, except for 5-ASA which is once a day. Finally, 101.10 (1-5 mg/kg) was also administered orally by gavage (po), twice a day. Forty-eight hours after administration of TNBS, rats were killed by CO2 inhalation. Colon was removed and assessed macroscopically (adhesions, ulcerations, discoloration and bleeding) and histologically (neutrophil infiltration, epithelial injury, crypt distortion and ulcerations). One to seven animals per group were studied, according to treatments. Myeloperoxidase (MPO) activity was measured on tissue lysates.

IL-1R/IL-1RacP receptor [2] = target: T1, IL-1R/IL-1RacP receptor (Sus scrofa, UniProt A0A5G2QSI4); assay: IL-1-induced PGE2 synthesis in piglet brain microvascular endothelial cells; type: cell-based, porcine; conditions: for Emax: Table 4, read-out: PGE2 synthesis in endothelial cells (porcine) Emax (%); for inhibition of IL-1-induced PGE2 synthesis, compared with parent API-101: alanine scan peptides 10^−6M, endothelial cells
T1 construct: endogenous in cells; host or cells: piglet brain microvascular endothelial cells
T1 sequence (A0A5G2QSI4 21-572): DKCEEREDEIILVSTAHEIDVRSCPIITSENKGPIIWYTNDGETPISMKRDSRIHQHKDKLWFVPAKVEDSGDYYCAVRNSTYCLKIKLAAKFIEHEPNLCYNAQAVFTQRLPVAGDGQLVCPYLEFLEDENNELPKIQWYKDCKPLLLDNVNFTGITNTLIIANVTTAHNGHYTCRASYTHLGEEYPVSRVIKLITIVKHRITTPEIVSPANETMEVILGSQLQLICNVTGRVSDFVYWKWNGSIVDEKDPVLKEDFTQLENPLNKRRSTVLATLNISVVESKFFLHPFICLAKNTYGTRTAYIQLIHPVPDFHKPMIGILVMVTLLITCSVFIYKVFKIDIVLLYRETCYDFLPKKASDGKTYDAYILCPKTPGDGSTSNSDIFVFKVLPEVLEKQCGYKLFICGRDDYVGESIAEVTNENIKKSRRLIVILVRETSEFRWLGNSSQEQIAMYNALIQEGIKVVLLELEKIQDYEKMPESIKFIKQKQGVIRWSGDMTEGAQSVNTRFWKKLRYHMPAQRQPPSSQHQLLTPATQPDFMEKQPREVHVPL
Description: (§1) It is well known in the art that IL-1 induces the synthesis of prostaglandin E2 (PGE2) in endothelial cells and/or chondrocytes in vitro. Therefore, human chondrocytes and piglet brain microvascular endothelial cells were pre-incubated 45-60 minutes at 37° C. with peptide API-101 (^10−6M) and human IL-1 (10 ng/ml) was added in the growing medium. After 24 hours of incubation, growth medium was collected and evaporated. PGE2 measurement was determined by RIA assay with a commercial kit (Cederlane).

IL-1R/IL-1RacP receptor [3] = target: T2, IL-1R/IL-1RacP receptor (Homo sapiens, UniProt P14778); assay: IL-1β-induced proliferation in TF-1 cells; type: cell-based; design: endogenous in cells; host or cells: TF-1 cells
T2 sequence (P14778 18-569): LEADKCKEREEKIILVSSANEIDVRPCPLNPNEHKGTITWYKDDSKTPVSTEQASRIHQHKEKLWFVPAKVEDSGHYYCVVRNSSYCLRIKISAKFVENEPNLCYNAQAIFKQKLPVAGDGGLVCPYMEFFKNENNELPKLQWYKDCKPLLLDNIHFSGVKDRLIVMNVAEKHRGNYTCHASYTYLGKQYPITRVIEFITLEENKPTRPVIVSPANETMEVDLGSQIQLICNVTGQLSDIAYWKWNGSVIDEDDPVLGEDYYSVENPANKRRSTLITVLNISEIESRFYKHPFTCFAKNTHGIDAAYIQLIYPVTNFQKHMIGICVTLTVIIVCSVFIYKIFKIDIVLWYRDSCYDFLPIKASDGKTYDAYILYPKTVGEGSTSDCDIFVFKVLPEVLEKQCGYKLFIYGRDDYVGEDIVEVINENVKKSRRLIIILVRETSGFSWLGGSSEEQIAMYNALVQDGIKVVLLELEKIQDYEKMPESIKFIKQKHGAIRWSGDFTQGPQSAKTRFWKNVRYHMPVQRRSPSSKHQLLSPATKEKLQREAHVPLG

IL-1R/IL-1RacP receptor [4] = target: T2, IL-1R/IL-1RacP receptor; assay: IL-1-induced PGE2 synthesis in human chondrocytes; type: cell-based; design: endogenous in cells; conditions: alanine scan peptides 10^−6M
Description: as §1

[5] = Intrarectal administration, 50.0-qd mg/kg/d
[6] = Table 4: TF-1 proliferation and PGE2 synthesis in endothelial cells, derivatives of 101.107
[7] = Table 5, derivatives of 101.113
[8] = Continuous infusion (ip), 8.0 mg/kg/d
[9] = Intermittent injection (ip), 10.0-qd mg/kg/d

## Nc1ccc(O)c(C(=O)O)c1 [5-ASA, reference compound]
[1]; [5]
  MPO (% of TNBS + Saline): 49 % of TNBS + Saline
  histologic evaluation (median score): 3.3
  macroscopic evaluation (median score): 1.5

## CC(C)C[C@@H](NC(=O)[C@@H](CCC(=O)O)NC(=O)[C@H]1CCCN1C(=O)[C@H](NC(=O)[C@@H](Cc1ccc(O)cc1)NC(=O)[C@H](N)CCCCN)[C@H](C)O)C(=O)N[C@H](C)C(N)=O [API-101.114, KYTPELA] (HELM PEPTIDE1{[dK].[dY].[dT].[dP].[dE].[dL].[dA].[am]}$$$$V2.0; N-terminus and C-terminus assumed)
IL-1R/IL-1RacP receptor [2]
  Emax: 50%
IL-1R/IL-1RacP receptor [3]; [6]
  activity of the peptide, in words: maintains its activity

## CC(C)C[C@@H](NC(=O)[C@@H](CCC(=O)O)NC(=O)[C@H]1CCCN1C(=O)[C@H](NC(=O)[C@@H](Cc1ccc(O)cc1)NC(=O)[C@H](N)CCCN)[C@H](C)O)C(=O)N[C@H](C)C(N)=O [API-101.115, XYTPELA (X = Ornithine)] (HELM PEPTIDE1{[NCCC[C@@H](N)C(=O)[*:2]].[dY].[dT].[dP].[dE].[dL].[dA].[am]}$$$$V2.0; N-terminus and C-terminus assumed)
IL-1R/IL-1RacP receptor [3]; [6]
  activity of the peptide, in words: maintains its activity

## CC(C)C[C@@H](NC(=O)[C@@H](CCC(=O)O)NC(=O)[C@H]1CCCN1C(=O)[C@H](NC(=O)[C@@H](Cc1c[nH]c2ccccc12)NC(=O)[C@H](N)CCCNC(=N)N)[C@H](C)O)C(=O)N[C@H](C)C(N)=O [API-101.116, RWTPELA] (HELM PEPTIDE1{[dR].[dW].[dT].[dP].[dE].[dL].[dA].[am]}$$$$V2.0; N-terminus and C-terminus assumed)
IL-1R/IL-1RacP receptor [2]
  Emax: 45%

## CC(C)C[C@@H](NC(=O)[C@@H](CC(=O)O)NC(=O)[C@H]1CCCN1C(=O)[C@H](NC(=O)[C@@H](Cc1ccc(O)cc1)NC(=O)[C@H](N)CCCNC(=N)N)[C@H](C)O)C(=O)N[C@H](C)C(N)=O [API-101.117, RYTPDLA] (HELM PEPTIDE1{[dR].[dY].[dT].[dP].[dD].[dL].[dA].[am]}$$$$V2.0; N-terminus and C-terminus assumed)
IL-1R/IL-1RacP receptor [2]
  Emax: 100%

## CC(C)C[C@@H](NC(=O)[C@@H](CCC(=O)O)NC(=O)[C@H]1CCCN1C(=O)[C@H](NC(=O)[C@@H](Cc1c[nH]c2ccccc12)NC(=O)[C@H](N)CCCNC(=N)N)[C@H](C)O)C(N)=O [API-101.128, RWTPEL]
IL-1R/IL-1RacP receptor [3]; TF-1, Table 5
  Emax: 100%
IL-1R/IL-1RacP receptor [3]; [7]
  activity of the peptide, in words: relatively decreased

## CC(C)C[C@@H](NC(=O)[C@@H](CCC(=O)O)NC(=O)[C@H]1CCCN1C(=O)[C@H](NC(=O)[C@@H](Cc1ccccc1)NC(=O)[C@H](N)CCCNC(=N)N)[C@H](C)O)C(N)=O [API-101.132, RFTPEL] (HELM PEPTIDE1{[dR].[dF].[dT].[dP].[dE].[dL].[am]}$$$$V2.0; N-terminus and C-terminus assumed)
IL-1R/IL-1RacP receptor [3]; [7]
  activity of the peptide, in words: relatively decreased

## CC(C)C[C@@H](NC(=O)[C@@H](CCC(=O)O)NC(=O)[C@H]1CCCN1C(=O)[C@H](NC(=O)[C@@H](Cc1ccc(O)cc1)NC(=O)[C@H](N)CCCNC(N)=O)[C@H](C)O)C(N)=O [API-101.134, XYTPEL (X = Citrulline)]
IL-1R/IL-1RacP receptor [3]; [7]
  activity of the peptide, in words: little or no activity

## CC(C)C[C@@H](NC(=O)[C@@H](CCC(=O)O)NC(=O)[C@H]1CCCN1C(=O)[C@H](NC(=O)[C@@H](Cc1ccc(O)cc1)NC(=O)[C@@H](N)CCCNC(=N)N)[C@H](C)O)C(N)=O [API-101.135, *RYTPEL]
IL-1R/IL-1RacP receptor [3]; [7]
  activity of the peptide, in words: lowered but not lost completely

## C[C@@H]1C[C@H]2[C@@H]3CCC4=CC(=O)C=C[C@]4(C)[C@@]3(F)[C@@H](O)C[C@]2(C)[C@@]1(O)C(=O)CO [Dexamethasone, dexamethasone, reference compound]
[1]; Intermittent injection (ip), 0.75-qd mg/kg/d
  MPO (% of TNBS + Saline): 60 % of TNBS + Saline

## APRYTAELA [API-101.5]
IL-1R/IL-1RacP receptor [2]
  inhibition of IL-1-induced PGE2 synthesis, compared with parent API-101: lost almost all activity
IL-1R/IL-1RacP receptor [4]
  inhibition of IL-1-induced PGE2 synthesis, compared with parent API-101: lost almost all activity

## APRYTVEAA [API-101.7]
IL-1R/IL-1RacP receptor [2]
  inhibition of IL-1-induced PGE2 synthesis, compared with parent API-101: lost almost all activity
IL-1R/IL-1RacP receptor [4]
  inhibition of IL-1-induced PGE2 synthesis, compared with parent API-101: lost almost all activity

## KYTPEL ([dK][dY][dT][dP][dE][dL]) [API-101.133]
IL-1R/IL-1RacP receptor [3]; [7]
  activity of the peptide, in words: little or no activity

## Kineret: natural soluble receptor IL-1Ra mimetic, Anakinra, developed by Amgen [reference compound]
[1]; [8]
  MPO (% of TNBS + Saline): 63 % of TNBS + Saline
  histologic evaluation (median score): 2 (Small ulcer (<5 crypts))

## RFVPELA [API-101.127]
IL-1R/IL-1RacP receptor [3]; [7]
  activity of the peptide, in words: completely abolished the activity

## Remicade: anti-TNFα [reference compound]
[1]; [9]
  MPO (% of TNBS + Saline): 88 ± 41 % of TNBS + Saline
  histologic evaluation (median score): 2.5 (1-3.75)**
  macroscopic evaluation (median score): 0.5

## XRYTPELA (X = Acetyl) (Ac-[dR][dY][dT][dP][dE][dL][dA]) [API-101.121]
IL-1R/IL-1RacP receptor [3]; [6]
  activity of the peptide, in words: completely lost

## XYTPEL (X = Ornithine) [API-101.126]
IL-1R/IL-1RacP receptor [3]; [7]
  activity of the peptide, in words: little or no activity
